This note sets out measurements from US6531496B1 (Bayer Aktiengesellschaft, priority 1999, dated 2003).

Values after ≈ are worked out from the molar mass of the structure shown.

The test system of one series is Plasmopara viticola. Description: Plasmopara test (grapevine)/protective. Format: in vivo. The conditions noted are these: 144 h, protective, evaluated 6 days after inoculation, read-out: Efficacy in %. On the procedure:
Plasmopara Test (Grapevine)/Protective Solvent: 47 parts by weight of acetone Emulsifier: 3 parts by weight of alkylaryl polyglycol ether To prepare a suitable active compound preparation, 1 part by weight of active compound is mixed with the stated amounts of solvent and emulsifier, and the concentrate is diluted with water to the desired concentration. To test for protective activity, young plants are sprayed with the active compound preparation at the application rate stated. After the spray coating has dried on, the plants are inoculated with an aqueous spore suspension of Plasmopara viticola and then remain for 1 day in an incubation cabinet at approx. 20° C. and a relative atmospheric humidity of 100%. […] The plants are then moistened and placed in an incubation cabinet for 1 day.

A further series has as its system Plutella. Description: Plutella test/synthetic feed. Conditions: active compound concentration 0.1%, after 7 days. Format: in vivo. As to the method: Plutella Test/Synthetic Feed Solvent: 100 parts by weight of acetone […] 1900 parts by weight of methanol To prepare a suitable active compound preparation, 1 part by weight of active compound is mixed with the stated amount of solvent and the concentrate is diluted with methanol to the desired concentration. A stated amount of active compound preparation of the desired concentration is pipetted onto a standardized amount of synthetic feed. After the methanol has evaporated, the lid of a film box, populated with approx. 100 Plutella eggs, is placed over each cavity. The freshly hatched larvae crawl onto the treated synthetic feed. After the desired time, the destruction is determined in %. 100% means that all the animals have been killed; 0% means that none of the animals have been killed.

In the next series the test system is Chaetomium globosum. Description: Minimum inhibitory concentration on malt extract agar. Format: cell-based. Conditions: 2 weeks at 28° C. On the procedure:
(§1) To confirm the activity against fungi (Penicillium brevicaule, Chaetomium globosum, Aspergillus Niger), the minimum inhibitory concentrations (MICs) of agents according to the invention are determined:
(§2) Active compounds according to the invention are added in concentrations of from 0.1 mg/l to 5 000 mg/l to an agar prepared using malt extract. […] The MIC is the lowest concentration of active compound at which no growth whatsoever by the microbial species used occurs; it is indicated in the table which follows.

A further series deals with Penicillium brevicaule. The series is described as above. Conditions: 2 weeks at 28° C.; for MIC: Penicillium, 336 h, read-out: Minimum inhibitory concentrations Penicillium brevicaule. It counts as cell-based. As to the method: as §1, §2
A further series deals with Aspergillus Niger. The series is described as above. Format: cell-based. Conditions: 2 weeks at 28° C. As to the method:
as §1, §2

Series [1] relates to greenhouse red spider mite (Tetranychus urticae). Description: Tetranychus test (OP-resistant/immersion treatment). It counts as in vivo. The conditions noted are these: active compound concentration 0.01%. On the procedure: Tetranychus Test (OP-resistant/Immersion Treatment)
Solvent: 3 parts by weight of dimethylformamide
Emulsifier: 1 part by weight of alkylaryl polyglycol ether
To prepare a suitable active compound preparation, 1 part by weight of active compound is mixed with the stated amount of solvent and the stated amount of emulsifier, and the concentrate is diluted with water to the desired concentrations.
Bean plants (Phaseolus vulgaris) which are severely infested by all stages of the greenhouse red spider mite (Tetranychus urticae) are immersed into an active compound preparation of the desired concentration.
After the desired time, the efficacy is determined in %. 100% means that all the spider mites have been killed; 0% means that none of the spider mites have been killed.

The nature of series [2]: logP by HPLC (EEC Directive 79/831 Annex V. A8, gradient method). Conditions: gradient of acetonitrile/0.1% aqueous phosphoric acid; HPLC, gradient method, acetonitrile/0.1% aqueous phosphoric acid; Table 1. Format: physicochemical.
The test system of series [3] is green peach aphid (Myzus persicae). Nature of the series: Myzus test. It counts as in vivo. Conditions: active compound concentration 0.01%. As to the method: Solvent: 6 parts by weight of dimethylformamide
67 parts by weight of methanol
Emulsifier: 2 parts by weight of alkylaryl polyglcol ether
To prepare a suitable active compound preparation, 1 part by weight of active compound is mixed with the stated amount of solvent and the stated amount of emulsifier, and the concentrate is diluted with emulsifier-containing water to the desired concentrations.
Field bean (Vicia faba) seedlings which are infested with the green peach aphid (Myzus persicae) are immersed into an active compound preparation of the desired concentration and placed into a plastic box.
After the desired period of time, the destruction is determined in %. 100% means that all the animals have been killed; 0% means that none of the animals have been killed.

For a further series, the system named is Venturia inaequalis. Nature of the series: Venturia test (apple)/protective. Format: in vivo. Conditions: 288 h, protective, evaluated 12 days after inoculation, read-out: Efficacy in %. As to the method: Venturia Test (Apple)/Protective Solvent: 47 parts by weight of acetone Emulsifier: 3 parts by weight of alkylaryl polyglycol ether To prepare a suitable active compound preparation, 1 part by weight of active compound is mixed with the stated amounts of solvent and emulsifier, and the concentrate is diluted with water to the desired concentration. To test for protective activity, young plants are sprayed with the active compound preparation at the application rate stated. After the spray coating has dried on, the plants are inoculated with an aqueous conidial suspension of the apple scab pathogen Venturia inaequalis and then remain for 1 day in an incubation cabinet at approx. 20° C. and 100% relative atmospheric humidity.

The chromatographic logP is a lipophilicity value derived from retention on a column. Higher therefore signals higher lipophilicity.

Consider `Nc1ccc(OC2=NS(=O)(=O)CS2)c(Cl)c1Cl` [Example 14], for which the pest or weed control at 250 g/ha in the series on Plasmopara viticola is no less than 90%. The “Destruction in % after 7^d” value in the series with Plutella is 95%.
Consider `O=S1(=O)CSC(Oc2ccccc2)=N1` [Example 1], for which the MIC with Chaetomium globosum (Chaetomium globosum, 336 h, read-out: Minimum inhibitory concentrations Chaetomium globosum) is 100 µg/mL (≈ 436 µM); in the series on Penicillium brevicaule, 100 µg/mL (≈ 436 µM); with Aspergillus Niger (Aspergillus niger, 336 h, read-out: Minimum inhibitory concentrations Aspergillus Niger) it was 100 µg/mL (≈ 436 µM).
With `CO/N=C(/C)c1ccc(OC2=NS(=O)(=O)CS2)cc1` [Example 20], in series [1] (after 7^h), the “Destruction in % after 7^h” value is recorded as 95%. Further, the “destruction after 7 days” value in [1] (after 7 days) stood at 95%. In addition, the chromatographic logP in [2] came to 2.62.
On to `C/C(=N/OCc1ccccc1)c1ccc(OC2=NS(=O)(=O)CS2)cc1` [Example 22], for which the “Destruction in % after 6^d” value in [3] is 100%. Further, in series [2], the chromatographic logP stood at 3.67.
Take `O=S1(=O)CSC(Oc2ccc(Cl)c(Cl)c2)=N1` [Example 100]: the pest or weed control at 250 g/ha in the series with Plasmopara viticola is no less than 90%. The “Minimum inhibitory concentrations Chaetomium globosum” value in the series on Chaetomium globosum is reported as 50 ppm. Besides, in the series with Penicillium brevicaule, the “Minimum inhibitory concentrations Penicillium brevicaule” value came to 20 ppm and the MIC was in the range of 10 to 100 µg/mL (≈ 33.5 to 335 µM). Also, in the series on Aspergillus Niger, the “Minimum inhibitory concentrations Aspergillus Niger” value is listed as 100 ppm. In the series with Venturia inaequalis, the pest or weed control at 250 g/ha was no less than 90%.
Take `O=S1(=O)CSC(Oc2cccc(Cl)c2)=N1` [Example 94]: the “Minimum inhibitory concentrations Chaetomium globosum” value in the series with Chaetomium globosum came to 100 ppm. Also, in the series with Penicillium brevicaule, the “Minimum inhibitory concentrations Penicillium brevicaule” value amounted to 20 ppm and the MIC is 10 to 100 µg/mL (≈ 37.9 to 379 µM). For the same compound, the “Minimum inhibitory concentrations Aspergillus Niger” value in the series on Aspergillus Niger was found to be 100 ppm. The pest or weed control at 250 g/ha in the series with Venturia inaequalis was no less than 90%.
Take `CC(=O)c1cccc(OC2=NS(=O)(=O)CS2)c1` [Example 40]: the pest or weed control at 250 g/ha in the series with Plasmopara viticola and with Venturia inaequalis was no less than 90% throughout. The “Destruction in % after 6^d” value in [3] was 90%. This compound yielded a chromatographic logP in series [2] of 1.73.
